# Assay results: ChEMBL document CHEMBL1152205, “Dihydropyrazolopyrimidine inhibitors of K(V)1.5 (I(Kur))” (Bioorg Med Chem Lett, 2008)
# Assays:
# [1] = molecular target: T1, Potassium voltage-gated channel subfamily A member 5 (Homo sapiens, UniProt P22460); experiment: Inhibition of human Kv1.5 channel expressed in mouse L929 cells by EP voltage clamp technique; format: cell-based
# [2] = molecular target: T1, Potassium voltage-gated channel subfamily A member 5; experiment: Inhibition of human Kv1.5 channel expressed in Xenopus oocytes at 3 uM by EP voltage clamp technique; format: cell-based; details: Oocyte
# [3] = molecular target: T1, Potassium voltage-gated channel subfamily A member 5; experiment: Inhibition of human Kv1.5 channel expressed in Xenopus oocytes at 10 uM by EP voltage clamp technique; format: cell-based; details: Oocyte
# [4] = Inhibition of L-type calcium channel expressed in HEK293 cells; format: cell-based
# [5] = molecular target: T1, Potassium voltage-gated channel subfamily A member 5; experiment: Inhibition of human Kv1.5 channel expressed in mouse L929 cells at 1 uM by EP voltage clamp technique; format: cell-based
# [6] = Selectivity of human Kv1.5 channel over potassium channel IK1
# [7] = species: Homo sapiens; experiment: Selectivity of human Kv1.5 channel over human ERG
# [8] = Inhibition of potassium channel IK1 at 10 uM
# [9] = molecular target: hERG (KCNH2) (Homo sapiens, UniProt Q12809); experiment: Inhibition of human ERG at 10 uM
# Chain of hERG (KCNH2) (Q12809 whole entry): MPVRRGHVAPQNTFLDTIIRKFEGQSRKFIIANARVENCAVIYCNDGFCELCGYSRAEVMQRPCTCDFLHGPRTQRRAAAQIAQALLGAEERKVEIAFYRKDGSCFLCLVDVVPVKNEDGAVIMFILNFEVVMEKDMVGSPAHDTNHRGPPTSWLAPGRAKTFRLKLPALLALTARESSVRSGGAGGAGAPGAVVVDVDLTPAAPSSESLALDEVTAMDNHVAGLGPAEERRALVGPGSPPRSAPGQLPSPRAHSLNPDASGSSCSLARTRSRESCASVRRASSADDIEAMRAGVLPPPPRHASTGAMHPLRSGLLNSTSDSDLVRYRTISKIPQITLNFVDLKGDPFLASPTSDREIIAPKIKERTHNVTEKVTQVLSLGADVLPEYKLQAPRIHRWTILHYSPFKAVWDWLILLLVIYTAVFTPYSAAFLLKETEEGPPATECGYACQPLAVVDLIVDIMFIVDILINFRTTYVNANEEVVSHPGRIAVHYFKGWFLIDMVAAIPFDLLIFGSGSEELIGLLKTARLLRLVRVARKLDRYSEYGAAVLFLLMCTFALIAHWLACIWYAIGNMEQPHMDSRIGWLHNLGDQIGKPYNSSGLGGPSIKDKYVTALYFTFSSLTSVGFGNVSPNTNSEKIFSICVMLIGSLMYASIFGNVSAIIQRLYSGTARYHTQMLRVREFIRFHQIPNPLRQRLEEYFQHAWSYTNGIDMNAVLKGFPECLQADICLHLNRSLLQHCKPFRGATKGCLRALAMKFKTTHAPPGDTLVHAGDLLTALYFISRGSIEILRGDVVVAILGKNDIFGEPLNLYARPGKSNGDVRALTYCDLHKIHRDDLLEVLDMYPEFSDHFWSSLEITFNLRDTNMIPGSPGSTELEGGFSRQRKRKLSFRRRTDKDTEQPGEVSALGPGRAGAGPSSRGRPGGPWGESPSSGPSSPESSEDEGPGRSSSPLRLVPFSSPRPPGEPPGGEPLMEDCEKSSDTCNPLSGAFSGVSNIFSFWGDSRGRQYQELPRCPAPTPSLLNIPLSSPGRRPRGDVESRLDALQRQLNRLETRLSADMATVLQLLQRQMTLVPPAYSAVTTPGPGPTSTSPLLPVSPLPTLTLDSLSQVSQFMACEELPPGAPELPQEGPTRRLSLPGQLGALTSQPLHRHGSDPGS
# [10] = Inhibition of L-type calcium channel ICa at 10 uM
# [11] = Inhibition of sodium channel INa at 10 uM by patch clamp technique
# [12] = Selectivity of human Kv1.5 channel over potassium channel IKs
# [13] = Inhibition of potassium channel IKs at 10 uM
# [14] = Selectivity of human Kv1.5 channel over sodium channel INa
# [15] = Selectivity of human Kv1.5 channel over L-type calcium channel ICa
# T1 sequence (P22460 whole entry): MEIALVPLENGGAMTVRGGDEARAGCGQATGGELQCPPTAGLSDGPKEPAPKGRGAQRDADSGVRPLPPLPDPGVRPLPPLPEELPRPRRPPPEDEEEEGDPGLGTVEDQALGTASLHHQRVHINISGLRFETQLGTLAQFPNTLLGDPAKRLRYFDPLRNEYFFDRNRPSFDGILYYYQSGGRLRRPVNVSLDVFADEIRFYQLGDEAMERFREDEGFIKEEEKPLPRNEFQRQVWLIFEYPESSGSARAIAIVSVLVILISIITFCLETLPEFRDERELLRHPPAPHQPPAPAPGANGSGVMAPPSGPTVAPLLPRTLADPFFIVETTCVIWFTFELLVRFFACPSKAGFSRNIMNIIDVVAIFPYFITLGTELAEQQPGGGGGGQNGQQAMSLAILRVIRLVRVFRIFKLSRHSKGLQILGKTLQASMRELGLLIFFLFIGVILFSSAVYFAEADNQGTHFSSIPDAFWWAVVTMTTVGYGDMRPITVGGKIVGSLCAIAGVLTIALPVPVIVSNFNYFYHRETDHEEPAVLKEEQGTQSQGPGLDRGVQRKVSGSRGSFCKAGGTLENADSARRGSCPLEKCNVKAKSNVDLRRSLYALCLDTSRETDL
SMILES,IC50 [1] [nM],inhibition [2] [%],other results
CCCCCNC(=O)C1=C(C)Nc2ccnn2C1c1ccc(Cl)c(Cl)c1 (centres undefined),590,48,–
CC1=C(C(=O)N2CCN(c3ccccc3)CC2)C(c2ccc(Cl)c(Cl)c2)n2nccc2N1 (centres undefined),85,–,inhibition [3]: 82%
CC1=C(C(=O)N2CCN(C3CCCCC3)CC2)C(c2ccc(Cl)c(Cl)c2)n2nccc2N1 (centres undefined),–,17,–
CC1=C(C(=O)N2CCN(c3ccc(F)cc3)CC2)C(c2ccc(Cl)s2)n2nccc2N1 (centres undefined),230,51,–
CC1=C(C(=O)N2CCN(c3ccc(F)cc3)CC2)C(c2cccc(Cl)c2)n2nccc2N1 (centres undefined),190,68,–
CC1=C(C(=O)N2CCN(c3ccc(F)cc3)CC2)C(c2ccc(C)c(C)c2)n2nccc2N1 (centres undefined),750,34,–
CC1=C(C(=O)N2CCN(c3ccc(F)cc3)CC2)C(c2ccco2)n2nccc2N1 (centres undefined),–,1,–
CC1=C(C(=O)N2CCN(C)CC2)C(c2ccc(Cl)c(Cl)c2)n2nccc2N1 (centres undefined),–,5,–
COC(=O)C1=C(C)NC(C)=C(C(=O)OC)C1c1ccccc1[N+](=O)[O-] [NIFEDIPINE],6100,–,IC50 [4]: 0.06 µM
CCN(CC)C(=O)C1=C(C)Nc2ccnn2C1c1ccc(Cl)c(Cl)c1 (centres undefined),440,61,–
CC1=C(C(=O)N2CCN(c3ccc(F)cc3)CC2)C(c2ccc(C#N)cc2)n2nccc2N1 (centres undefined),–,14,–
COC[C@H]1CCCN1C(=O)C1=C(C)Nc2ccnn2C1c1ccc(Cl)c(Cl)c1 (some centres undefined),–,39,–
CC1=C(C(=O)N2CCN(c3ccc(F)cc3)CC2)C(c2cc(Cl)ccc2Cl)n2nccc2N1 (centres undefined),820,41,–
CC1=C(C(=O)N2CCN(c3ccc(F)cc3)CC2)[C@H](c2ccc(Cl)c(Cl)c2)n2nccc2N1,–,19,–
CC1=C(C(=O)N2CCC2)C(c2ccc(Cl)c(Cl)c2)n2nccc2N1 (centres undefined),970,52,–
COc1ccccc1C1C(C(=O)N2CCN(c3ccc(F)cc3)CC2)=C(C)Nc2ccnn21 (centres undefined),–,2,–
CC1=C(C(=O)N2CCN(c3ccc(F)cc3)CC2)C(c2ccccc2[N+](=O)[O-])n2nccc2N1 (centres undefined),–,4,–
CCCCNC(=O)C1=C(C)Nc2ccnn2C1c1ccc(Cl)c(Cl)c1 (centres undefined),440,56,–
CC1=C(C(=O)N2CCN(c3ccc(F)cc3)CC2)C(c2ccc(Cl)c(Cl)c2)n2nccc2N1 (centres undefined),120,65,–
CC1=C(C(=O)N2CCN(c3ccc(F)cc3)CC2)C(c2cccc(C)c2)n2nccc2N1 (centres undefined),540,57,–
CC1=C(C(=O)N2CCN(c3ccc(F)cc3)CC2)C(c2ccc(Cl)cc2)n2nccc2N1 (centres undefined),440,42,–
CC1=C(C(=O)Nc2ccccc2)C(c2ccc(Cl)c(Cl)c2)n2nccc2N1 (centres undefined),170,–,inhibition [3]: 83%
CC1=C(C(=O)N2CCC(c3ccccc3)CC2)C(c2ccc(Cl)c(Cl)c2)n2nccc2N1 (centres undefined),159,59,–

SMILES,IC50 [1] [nM],inhibition [2] [%],other results
CC1=C(C(=O)N2CCN(c3ccc(F)cc3)CC2)[C@H](c2cccc(Cl)c2Cl)n2nccc2N1,–,2,–
CC1=C(C(=O)N2CCCCCC2)C(c2ccc(Cl)c(Cl)c2)n2nccc2N1 (centres undefined),190,90,–
COc1ccc(C2C(C(=O)N3CCN(c4ccc(F)cc4)CC3)=C(C)Nc3ccnn32)cc1OC (centres undefined),–,1,–
CC1=C(C(=O)N2CCCCC2)C(c2ccc(Cl)c(Cl)c2)n2nccc2N1 (centres undefined),90,77,–
COc1cccc(C2C(C(=O)N3CCN(c4ccc(F)cc4)CC3)=C(C)Nc3ccnn32)c1 (centres undefined),–,30,–
COc1cccc(C2C(C(=O)N3CCN(c4ccc(F)cc4)CC3)=C(C)Nc3ccnn32)c1OC (centres undefined),–,7,–
CC1=C(C(=O)N2CCN(c3ccc(F)cc3)CC2)C(c2cccs2)n2nccc2N1 (centres undefined),–,7,–
CC1=C(C(=O)N2CCOCC2)C(c2ccc(Cl)c(Cl)c2)n2nccc2N1 (centres undefined),–,17,–
CC1=C(C(=O)N2CCN(c3ccc(F)cc3)CC2)C(c2cc(Cl)cc(Cl)c2)n2nccc2N1 (centres undefined),140,62,–
CC1=C(C(=O)N2CCN(c3ccc(F)cc3)CC2)C(c2cccnc2)n2nccc2N1 (centres undefined),–,3,–
CC1=C(C(=O)N2CCN(c3ccc(F)cc3)CC2)C(c2cccc(Cl)c2Cl)n2nccc2N1 (centres undefined),160,72,–
CC1=C(C(=O)N2CCN(c3ccc(F)cc3)CC2)C(c2ccc3ccccc3c2)n2nccc2N1 (centres undefined),650,39,–
CC1=C(C(=O)NCCc2ccccc2)C(c2ccc(Cl)c(Cl)c2)n2nccc2N1 (centres undefined),100,–,inhibition [3]: 84%
CC1=C(C(=O)N2CCN(c3ccc(F)cc3)CC2)C(c2ccc3c(c2)OCO3)n2nccc2N1 (centres undefined),–,26,–
CCCCN(CCCC)C(=O)C1=C(C)Nc2ccnn2C1c1ccc(Cl)c(Cl)c1 (centres undefined),310,45,–
CC1=C(C(=O)N2CCN(c3ccc(F)cc3)CC2)C(c2ccc([N+](=O)[O-])cc2)n2nccc2N1 (centres undefined),–,24,–
CC1=C(C(=O)N2CCN(c3ccc(F)cc3)CC2)C(c2ccccc2C)n2nccc2N1 (centres undefined),–,37,inhibition [5]: 48%
CC1=C(C(=O)N2CCN(c3ccc(F)cc3)CC2)C(c2ccc3ccccc3n2)n2nccc2N1 (centres undefined),–,29,–
CCOC(=O)C1=C(C)Nc2ccnn2C1c1cccc(Cl)c1Cl (centres undefined),1100,–,IC50 [4]: 9.38 µM
CC1=C(C(=O)N2CCN(c3ccc(F)cc3)CC2)C(c2cccc(C#N)c2)n2nccc2N1 (centres undefined),–,11,–
CC1=C(C(=O)N2CCN(c3ccc(F)cc3)CC2)C(c2ccccn2)n2nccc2N1 (centres undefined),–,3,–
CC1=C(C(=O)N2CCN(c3ccc(F)cc3)CC2)C(c2cc3ccccc3o2)n2nccc2N1 (centres undefined),160,33,–
CC1=C(C(=O)N2CCN(c3ccc(F)cc3)CC2)C(c2cnc3ccccc3c2)n2nccc2N1 (centres undefined),–,17,–

SMILES,IC50 [1] [nM],inhibition [2] [%],other results
Cc1nc2ccnn2c(-c2cccc(Cl)c2Cl)c1C(=O)N1CCN(c2ccc(F)cc2)CC1,–,17,–
CC1=C(C(=O)N2CCN(c3ccc(F)cc3)CC2)C(c2ccc(C)s2)n2nccc2N1 (centres undefined),–,1,–
CC1=C(C(=O)N2CCN(c3ccc(F)cc3)CC2)C(c2ccccc2Cl)n2nccc2N1 (centres undefined),–,30,–
Cc1nc2ccnn2c(-c2ccc(Cl)c(Cl)c2)c1C(=O)N1CCCCC1,–,17,–
COc1ccc(C2C(C(=O)N3CCN(c4ccc(F)cc4)CC3)=C(C)Nc3ccnn32)cc1 (centres undefined),–,11,–
CC1=C(C(=O)N2CCN(c3ccc(F)cc3)CC2)[C@@H](c2ccc(Cl)c(Cl)c2)n2nccc2N1,70,72,fold change (FC) [6]: > 50; fold change (FC) [7]: > 50; inhibition [8]: 3%; inhibition at 10 µM [9]: 69%; inhibition [10]: 59%; inhibition [11]: 42%; fold change (FC) [12]: > 50; inhibition [13]: 21%; fold change (FC) [14]: > 50; fold change (FC) [15]: > 50
CC1=C(C(=O)Nc2cccnc2)C(c2ccc(Cl)c(Cl)c2)n2nccc2N1 (centres undefined),–,–,inhibition [3]: 9%
CC1=C(C(=O)N2CCN(c3ccc(F)cc3)CC2)C(c2ccc(C)o2)n2nccc2N1 (centres undefined),–,7,–
CC1=C(C(=O)N2CCN(c3ccc(F)cc3)CC2)C(c2sccc2C)n2nccc2N1 (centres undefined),–,29,–
CC1=C(C(=O)N2CCN(c3ccc(F)cc3)CC2)C(c2cc(C)cc(C)c2)n2nccc2N1 (centres undefined),420,58,–
CC1=C(C(=O)N2CCN(c3ccc(F)cc3)CC2)C(c2ccc(C)cc2)n2nccc2N1 (centres undefined),–,27,–
CC1=C(C(=O)N2CCN(c3ccc(F)cc3)CC2)C(c2ccccc2)n2nccc2N1 (centres undefined),–,24,–
CC1=C(C(=O)N2CCN(c3ccc(F)cc3)CC2)[C@@H](c2cccc(Cl)c2Cl)n2nccc2N1,160,67,fold change (FC) [6]: > 50; fold change (FC) [7]: > 50; inhibition [8]: 1%; inhibition at 10 µM [9]: 41%; inhibition [10]: 55%; inhibition [11]: 14%; fold change (FC) [12]: > 50; inhibition [13]: 7%; fold change (FC) [14]: > 50; fold change (FC) [15]: > 50
CC1=C(C(=O)N2CCN(c3ccc(F)cc3)CC2)C(c2sc3ccccc3c2C)n2nccc2N1 (centres undefined),200,56,–
CC1=C(C(=O)NCc2ccccc2)C(c2ccc(Cl)c(Cl)c2)n2nccc2N1 (centres undefined),160,62,–
CC1=C(C(=O)N2CCN(c3ccc(F)cc3)CC2)C(c2cccc3c2OCO3)n2nccc2N1 (centres undefined),–,18,–
CCCCCN(CCCCC)C(=O)C1=C(C)Nc2ccnn2C1c1ccc(Cl)c(Cl)c1 (centres undefined),580,69,–
CC1=C(C(=O)N2CCN(c3ccc(F)cc3)CC2)C(c2cccc([N+](=O)[O-])c2)n2nccc2N1 (centres undefined),–,15,–
CCCNC(=O)C1=C(C)Nc2ccnn2C1c1ccc(Cl)c(Cl)c1 (centres undefined),490,–,–
CC1=C(C(=O)N2CCCC2)C(c2ccc(Cl)c(Cl)c2)n2nccc2N1 (centres undefined),660,67,–
CCCN(CCC)C(=O)C1=C(C)Nc2ccnn2C1c1ccc(Cl)c(Cl)c1 (centres undefined),70,72,–
CC1=C(C(=O)N2CCN(c3ccc(F)cc3)CC2)C(c2ccc(Cl)cc2Cl)n2nccc2N1 (centres undefined),280,50,–
COC[C@@H]1CCCN1C(=O)C1=C(C)Nc2ccnn2C1c1ccc(Cl)c(Cl)c1 (some centres undefined),200,88,–
